# Assay: Fluorophore detection in interstitial fluid (ISF) of rats after IV or PO dosing, subcutaneous optical PMMA fiber and reader device
# Conditions: rat, in vivo
# Excerpt: Study Protocol: The purpose of the study was to investigate in an acute or semi-chronic rat trial set-up if fluorophores are detectable in the ISF (InterStitial Fluid) when injected IV or given to the rat Per Oral (PO). Four rat subjects (Rat 001, Rat 002, Rat 003, and Rat 004) were included in the study. The procedure of the study was as follows: Rat subjects were Sprague Dawley rats, male, Diet Induced Obese (DIO). For each rat, the rat was anaesthesized, shaved and cleaned on the back for PMMA optical fiber insertion. A tail venous catheter was placed and two 250 um optical PMMA fibers were placed in the subcutaneous fat tissue of the DIO rat. The base and tape of the sensor unit was sutured to the skin.
# For Rats 001 and 002, a reader device suitable for indocyanine green dye detection was mounted. [ . . . ] Rat 002 died during oral dosing while under anesthesia due to lack of swallowing reflex.
# For Rats 003 and 004 reader devices suitable for Alexa Fluor 594™ (AF594) detection were mounted. Recording began using RF data transfer (GST protocol, MDT Diabetes). A first IV injection of 0.01 mg AF594 was injected (1 mL into tail vein). Rise and decay of fluorescence was observed before a second injection of 1 mL of 0.01 mg AF594 into the tail vein. Anesthesia then was removed and the rat was placed into a cage. […]
compound,measurement,value
CC1(C)C(/C=C/C=C/C=C/C=C2\N(CCCCS(=O)(=O)O)c3ccc4ccccc4c3C2(C)C)=[N+](CCCCS(=O)(=O)[O-])c2ccc3ccccc3c21 [Indo Cyanine Green],clearance from the ISF after IV dosing,relatively fast clearance
same,signal in ISF after IV dosing,distinct signals

# Reference: patent US12171554B2, “Marker monitoring via a medical device” (Medtronic, Inc., priority 2017, dated 2024)
